Measurements from patent US12564570B2, “Use of leoligin in the prevention of tissue damage” (UNIVERSITÄT LINZ, priority 2020, dated 2026).

What was measured:
[1] = test system: myocardial infarction rat model; details: direct injection into the peri-infarction zone; cited from earlier work
[2] = Metabolic stability assay in human liver S9 fraction; format: in vitro ADME; details: for elimination half live in liver S9: human liver S9 0.5 mg/ml, NADPH and UDPGA co-factors, 3 μM compound, 37° C., HPLC, first order kinetic
Description: To gain insights into the enzymatic stability of a drug, the metabolic stability assay serves as an effective tool and also helps to separate applicable routes for drug uptake from less applicable ones e.g. due to fast hepatic clearance. When substances are applied orally, the liver clearance (first-pass effect) has the most influence on drug clearance and further on the amount of active drug reaching the site of action. Thus, in order to test hepatic clearance, 5-ML was exposed to subcellular fractions of liver and compound concentrations were assessed in a time-dependent manner.
The concept of in vitro metabolic stability testing is based on and predicts well liver metabolic clearance in vivo. Therefore, the subcellular fraction which accounts for most of the enzymatic activity of the organ is used, which contains intra and extra cellular enzymes of the liver. The elimination half live of 5-ML was calculated by the assessment of the elimination constant.
(§1) For the organ specific enzymatic degradation of a compound a reaction mix (1 ml) was made, and aliquots (50 μl) were taken at the timepoints indicated in the Figures to calculate the elimination constant by measuring the compound concentration over time using HPLC-based quantification.
(§2) The reaction mix contains: • Subcellular fraction of the specific organ (Liver S9, Lung microsomes, or Saliva), • Co-Factor Solution (NADPH and UDPGA). Co-factors are used in this assay to activate the enzymatic activity of the main metabolizing enzymes of the organ specific subcellular fractions. NADPH is needed for the Phase I oxidation where Cytochrome P450 […] accounts for the most and UDPGA is needed for the Phase II glucuronidation, • and the desired compound: 5-ML as active ingredient, Diclofenac as control, water as control; diluted in DMSO.
All compounds were tested in triplicates, except the solvent control (water instead of active compound 5-ML). […]

[3] = test system: ATRA-signalling; details: Danzl et al. 2019; cited from earlier work
[4] = Metabolic stability assay in pooled human lung microsomes; format: in vitro ADME; details: pooled human lung microsomes with co-factors; also printed as 23.1 h
Protocol: as §1, §2
(§3) Preparation of the reaction mix (in Triplicates): • Take 980 μl organ specific subcellular fraction solution (0.5 mg/ml) of human liver S9 fraction in DPBS with Calcium and Magnesium, • Add 10 μl of substance stock solution dissolved in DMSO (c 0,003 M) from either 5-ML, Diclofenac or water as solvent control. […] Cells 2020, 9, 2048).
Next, 5-ML was exposed to lung microsomes (drug delivery by inhalation).
Materials & Methods are the same as in Example 4, except that lung microsomes were used instead of S9 liver fraction.

[5] = test system: myocardial infarction in mice; details: after induction of MI in mice, 10 injections per heart directly into the infarction zone; cited from earlier work
[6] = Metabolic stability assay in pooled human saliva; format: in vitro ADME
Protocol: as §1, §2, §3
Materials & Methods are the same as in Example 4, except that pooled human saliva was used instead of S9 liver fraction. […]

[7] = literature value; cited from earlier work

Row | elimination half live in liver S9 [2] | elimination constant of exponential first order kinetic ([2]; human liver S9, Ln(2)/k gives half live, time axis in minutes, in min-1) | elimination half live in lung microsomes [4] | elimination in saliva with co-factors ([6]; with co-factors (NADPH and UDPGA)) | elimination half-life in saliva without co-factor ([6]; without co-factor solution) | Structure (SMILES) | arteriogenesis in vivo [1] | inhibition of ATRA-signalling [3] | infarction area [5] | estimated half live in human liver in literature [7]
1 | 10.66 min | 0,065 | 1386 min | no elimination | 115.5 h | C/C=C(/C)C(=O)OC[C@H]1[C@@H](Cc2ccc(OC)c(OC)c2)CO[C@@H]1c1cc(OC)c(OC)c(OC)c1 [5-ML] | induced arteriogenesis | capable of inhibiting ATRA-signalling | reduces the infarction area | 
2 | 173 min |  |  |  |  | O=C(O)Cc1ccccc1Nc1c(Cl)cccc1Cl [diclofenac, reference compound] |  |  |  | 1 to 3 h
